In one test the target is T1, human RORγt LBD (Homo sapiens, UniProt P51449).
T1 construct: expressed in transfected cells
T1 sequence (P51449 258-518): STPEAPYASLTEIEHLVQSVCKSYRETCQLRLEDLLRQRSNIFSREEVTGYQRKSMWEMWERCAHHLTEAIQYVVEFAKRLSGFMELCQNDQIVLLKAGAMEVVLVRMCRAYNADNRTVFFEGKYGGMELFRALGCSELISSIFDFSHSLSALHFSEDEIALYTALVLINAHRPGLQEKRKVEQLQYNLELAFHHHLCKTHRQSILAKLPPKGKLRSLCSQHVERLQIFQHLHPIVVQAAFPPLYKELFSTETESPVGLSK
The test can be described thus: RORγt reporter assay (GAL4-RORγt LBD luciferase in HEK293T cells). The note with it: for inhibition at 6 µM: HEK-293T, read-out: RORγt reporter Assay, % inhibition @ 6 μM, HEK293T cells, 6 μM compound; for IC50 / RORγt reporter Assay, % inhibition @ 6 μM: HEK293T cells; for IC50: 24 hours compound treatment; for RORγt reporter Assay, % inhibition @ 6 μM: 6 μM compound. The test is classed as cell-based. An excerpt:
A reporter assay was used to test functional activity of RORγt modulatory compounds on transcriptional activation driven by the RORγt LBD. Cells used in the assay were co-transfected with two constructs. The first construct, pBIND-RORγt LBD, contained the wild type human RORγt LBD fused to the DNA binding domain of the GAL4 protein. The second construct, pGL4.31 (Promega Cat no. C935A), contained multiple GAL4 responsive DNA elements upstream of firefly luciferase. […] The mutant construct was called pBIND-RORγt-AF2.
The pBIND vector contains the GAL4 DNA Binding Domain (GAL4 DBD) and the renilla luciferase gene under control of the SV40 promoter. Renilla luciferase expression serves as a control for transfection efficiency and cell viability.
The reporter assay was performed by transiently transfecting HEK293T cells with 5 ng of pBIND-RORγt LBD or pBIND-RORγt LBD-AF2 and 5 μg pGL4.31 (Promega Cat no. C935A) using Fugene 6 (Invitrogen Cat no. E2691) at a 1:6 ratio of DNA:Fugene 6 in a T-75 flask in which cells were at least 80% confluent. Twenty four hours after bulk transfection, cells were plated into 96-well plates at 50,000 cells/well in phenol-red free DMEM containing 5% Lipid Reduced FCS and Pen/Strep. Six hours after plating, cells were treated with compounds for 24 hours. Media was removed and cells were lysed with 50 μL 1× Glo Lysis Buffer (Promega). Dual Glo Luciferase Reagent (50 μL/well) was then added and firefly luciferase luminescence was read on an Envision after a ten minute incubation. Finally, Stop and Glo reagent (50 μL/well) was added and renilla luciferase luminescence was read on an Envision after a ten minute incubation. To calculate the effect of compounds on RORγt activity, the ratio of firefly to renilla luciferase was determined and plotted against compound concentration. Agonist compounds increase RORγt-driven luciferase expression, and antagonist or inverse agonist compounds decrease luciferase expression.
(In general: A reporter such as luciferase makes a cellular process visible.)

For test [1], the target named is T2, human RORγt ligand binding domain (RORγt LBD) (Homo sapiens, UniProt P51449).
T2 construct: His-tag (N); TurboTEV protease cleavage site (ENLYFQG) (N); made in house; host or cells: E. coli (pHIS1, modified pET vector)
T2 sequence (P51449 with tags, fused parts or gaps): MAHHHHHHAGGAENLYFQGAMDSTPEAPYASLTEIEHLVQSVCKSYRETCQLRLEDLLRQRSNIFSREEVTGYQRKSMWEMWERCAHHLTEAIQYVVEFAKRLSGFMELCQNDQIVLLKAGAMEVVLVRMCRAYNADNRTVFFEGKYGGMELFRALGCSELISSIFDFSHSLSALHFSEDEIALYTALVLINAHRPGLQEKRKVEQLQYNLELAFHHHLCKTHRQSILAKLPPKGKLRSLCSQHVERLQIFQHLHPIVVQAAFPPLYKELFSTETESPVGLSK
The test can be described thus: RORγt ThermoFluor assay (thermal shift, ligand binding affinity). The note with it: estimated from concentration response of thermal shift. The procedure:
This approach is applicable to a wide variety of systems, and rigorous in theoretical interpretation through quantitation of equilibrium binding constants (KD).
The shift in the melting point described as a ΔTm is proportional to the concentration and affinity of the ligand.
RORγt ThermoFluor® Assay Construct
Protein and compound solutions are dispensed into black 384-well polypropylene PCR microplates (Abgene) and overlayed with silicone oil (1 μL Fluka, type DC 200) to prevent evaporation.
Fluorescence was measured by continuous illumination with UV light (Hamamatsu LC6) supplied via fiber optic and filtered through a band-pass filter (380-400 nm; >6 OD cutoff). Fluorescence emission of the entire 384-well plate was detected by measuring light intensity using a CCD camera (Sensys, Roper Scientific) filtered to detect 500±25 nm, resulting in simultaneous and independent readings of all 384 wells. Images were collected at each temperature, and the sum of the pixel intensity in a given area of the assay plate was recorded versus temperature. Reference wells contained RORγt without compounds, and the assay conditions were as follows: • 0.065 mg/mL RORγt • 60 μM 1,8-ANS • 100 mM Hepes, pH 7.0 • 10 mM NaCl • 2.5 mM GSH • 0.002% Tween-20
Project compounds were arranged in a pre-dosed mother plate (Greiner Bio-one) wherein compounds are serially diluted in 100% DMSO by 1:2 from a high concentration of 10 mM over 12 columns within a series (column 12 is a reference well containing DMSO, no compound).
The compounds were robotically dispensed directly into assay plates (1×=[…]) using a Hummingbird capillary liquid handling instrument (Digilab). Following compound dispense, protein and dye in buffer was added to achieve the final assay volume of 3 μL, followed by 1 μL of silicone oil.

The structures appear in SMILES notation. Structures can show the parent of a compound that is named as a salt.

For the molecule `Cn1cncc1C(O)(c1ccc(C(F)(F)F)nc1)c1ccc2nc(C(F)(F)F)c(-c3ccccc3)c(C#N)c2c1` (racemic) [Example 173a, 6-(Hydroxy(1-methyl-1H-imidazol-5-yl)(6-(trifluoromethyl)pyridin-3-yl)methyl)-3-phenyl-2-(trifluoromethyl)quinoline-4-carbonitrile•TFA], the inhibition at 6 µM at human RORγt LBD came to 103%.
As for `CC(=O)N1CCC(C(O)(c2ccc3nc(C(F)(F)F)c(-c4ccccc4)c(C(F)(F)F)c3c2)c2cncn2C)CC1` (racemic) [Example 181a, 1-(4-(Hydroxy(1-methyl-1H-imidazol-5-yl)(3-phenyl-2,4-bis(trifluoromethyl)quinolin-6-yl)methyl)piperidin-1-yl)ethanone], the dissociation constant (Kd) in test [1] was 16 nM. For the same molecule, at human RORγt LBD, the IC50 amounted to 140 nM and the inhibition at 6 µM is 101%.
As to `COc1nc2c(C)cc(C(O)(c3ccc(C(F)(F)F)nc3)c3cncn3C)cc2c(Cl)c1-c1ccc(OC(F)(F)F)cc1` (racemic) [Example 183a, (4-Chloro-2-methoxy-8-methyl-3-(4-(trifluoromethoxy)phenyl)quinolin-6-yl)(1-methyl-1H-imidazol-5-yl)(6-(trifluoromethyl)pyridin-3-yl)methanol•TFA], the Kd in test [1] is 9.3 nM. The IC50 on human RORγt LBD was over 6000 nM.
As for `Cn1cncc1C(O)(c1ccc2nc(C(F)(F)F)c(-c3ccccc3)c(C(F)(F)F)c2c1)c1ccccn1` (racemic) [Example 185a, (1-Methyl-1H-imidazol-5-yl)(3-phenyl-2,4-bis(trifluoromethyl)quinolin-6-yl)(pyridin-2-yl)methanol], in test [1], the Kd was 74 nM. Besides, on human RORγt LBD, the midpoint of inhibition, the IC50, lay at 200 nM and the inhibition at 6 µM is 100%.
Regarding `Cn1cncc1C(O)(c1ccc(Cl)cc1)c1ccc2nc(Cl)c(-c3ccccc3Cl)c(Cl)c2c1` (single isomer, unassigned) [Example 153d, (4-Chlorophenyl)(2,4-dichloro-3-(2-chlorophenyl)quinolin-6-yl)(1-methyl-1H-imidazol-5-yl)methanol], the Kd in test [1] is 3500 nM. Moreover, on human RORγt LBD, the “RORγt reporter Assay, % inhibition @ 6 μM” value was found to be 75% and 1500 nM corresponded to half-maximal inhibition (IC50).
With `Cn1cncc1C(O)(c1ccc(C(F)(F)F)nc1)c1ccc2nc(C(F)(F)F)c(-c3ccccc3)c(C#N)c2c1` (single isomer, unassigned) [Example 173b, 6-(Hydroxy(1-methyl-1H-imidazol-5-yl)(6-(trifluoromethyl)pyridin-3-yl)methyl)-3-phenyl-2-(trifluoromethyl)quinoline-4-carbonitrile], at human RORγt LBD, the inhibition at 6 µM amounted to 100%.
Regarding `Cc1cc(C(O)(c2ccc(F)cc2)c2cncn2C)cc2c(C#N)c(-c3cccc(F)c3)c(C#N)nc12` (single isomer, unassigned) [Example 175b, 3-(3-Fluorophenyl)-6-((4-fluorophenyl)(hydroxy)(1-methyl-1H-imidazol-5-yl)methyl)-8-methylquinoline-2,4-dicarbonitrile], in test [1], the Kd is 8200 nM. Also, on human RORγt LBD, the IC50 is 2100 nM and the inhibition at 6 µM stood at 76%.
`Cc1cc(C(O)(c2ccc(C(F)(F)F)nc2)c2cncn2C)cc2c(C#N)c(-c3cccc(F)c3)c(C#N)nc12` (single isomer, unassigned) [Example 176b, 3-(3-Fluorophenyl)-6-(hydroxy(1-methyl-1H-imidazol-5-yl)(6-(trifluoromethyl)pyridin-3-yl)methyl)-8-methylquinoline-2,4-dicarbonitrile]: in test [1], the Kd is 3400 nM. Besides, on human RORγt LBD, half-maximal inhibition (IC50) required 1500 nM and the inhibition at 6 µM was determined as 94%.
With `COc1nc2c(C)cc(C(O)(c3ccc(F)cc3)c3cncn3C)cc2c(Cl)c1-c1cccc(F)c1` (single isomer, unassigned) [Example 178b, (4-Chloro-3-(3-fluorophenyl)-2-methoxy-8-methylquinolin-6-yl)(4-fluorophenyl)(1-methyl-1H-imidazol-5-yl)methanol], the Kd in test [1] was 21000 nM. Besides, at human RORγt LBD, the “RORγt reporter Assay, % inhibition @ 6 μM” value is on record as 72% and inhibition was half-maximal at 610 nM (IC50).
In the case of `COc1nc2c(C)cc(C(O)(c3ccc(C(F)(F)F)nc3)c3cncn3C)cc2c(C#N)c1-c1cccc(F)c1` (single isomer, unassigned) [Example 179b, 3-(3-Fluorophenyl)-6-(hydroxy(1-methyl-1H-imidazol-5-yl)(6-(trifluoromethyl)pyridin-3-yl)methyl)-2-methoxy-8-methylquinoline-4-carbonitrile], the equilibrium dissociation constant (Kd) in test [1] was 6600 nM. On human RORγt LBD, the IC50 came out at 1300 nM and the inhibition at 6 µM came to 98%.
As to `Cc1cc(C(O)(c2ccc(C(F)(F)F)nc2)c2cncn2C)cc2c(C#N)c(-c3ccc(F)cc3)c(C#N)nc12` (single isomer, unassigned) [Example 184b, 3-(4-Fluorophenyl)-6-(hydroxy(1-methyl-1H-imidazol-5-yl)(6-(trifluoromethyl)pyridin-3-yl)methyl)-8-methylquinoline-2,4-dicarbonitrile], in test [1], the Kd is 2500 nM. At human RORγt LBD, the IC50 was 3000 nM and the inhibition at 6 µM turned out to be 99%.
Turning to `Cn1cncc1C(O)(c1ccc2nc(C(F)(F)F)c(-c3ccccc3)c(C(F)(F)F)c2c1)c1ccccn1` (single isomer, unassigned) [Example 185c, (1-Methyl-1H-imidazol-5-yl)(3-phenyl-2,4-bis(trifluoromethyl)quinolin-6-yl)(pyridin-2-yl)methanol], in test [1], the dissociation constant Kd was 760 nM. Also, on human RORγt LBD, the “RORγt reporter Assay, % inhibition @ 6 μM” value is 91% and it took 810 nM to reach half-maximal inhibition (IC50).
With `Cc1nn(C)c(C)c1C(O)(c1ccccc1)c1ccc2nc(Cl)c(-c3ccccc3)c(Cl)c2c1` (centres unmarked) [Example 4, (2,4-Dichloro-3-phenylquinolin-6-yl)(phenyl)(1,3,5-trimethyl-1H-pyrazol-4-yl)methanol], in test [1], the Kd was 3300 nM. Besides, on human RORγt LBD, the concentration for half-maximal inhibition (IC50) turned out to be 3200 nM and the inhibition at 6 µM is 97%.
For `CC(C)(C)OC(=O)N1CCCC(C(O)(c2cccnc2)c2ccc3nc(Cl)c(-c4ccccc4)c(Cl)c3c2)C1` (centres unmarked) [Example 5, tert-Butyl 3-((2,4-Dichloro-3-phenylquinolin-6-yl)(hydroxy)(pyridin-3-yl)methyl)piperidine-1-carboxylate] the same measures were 21000 nM, 380 nM and 79%.
Regarding `Cc1ccc(C(O)(c2cc[nH]c2)c2cc(C)c3nc(Cl)c(-c4ccccc4)c(Cl)c3c2)cn1` (centres unmarked) [Example 157, (2,4-Dichloro-8-methyl-3-phenylquinolin-6-yl)(6-methylpyridin-3-yl)(1H-pyrrol-3-yl)methanol•TFA], in test [1], the Kd was 2800 nM.

A word on the inhibition: it is the relative decrease from the control value, in per cent. By Kd is commonly meant the free concentration of one partner at which half of the binding sites on the other are occupied at equilibrium, for simple one-to-one binding. Usually IC50 stands for the concentration needed to halve the response being measured. High values mean weaker potency in that assay, low ones greater potency in that assay.

(Values after patent US9309222B2, “Phenyl linked quinolinyl modulators of RORγt” (Janssen Pharmaceutica NV, priority 2012, dated 2016).)
